row,Structure (SMILES),melting point
1,"C[C@H](NC(=O)c1c(CN2CCN(CCO)C(=O)C2)c(-c2cccs2)nc2ccccc12)C1CCCCC1 [Example 1, 3-[4-(2-Hydroxy-ethyl)-3-oxo-piperazin-1-ylmethyl]-2-thiophen-2-yl-quinoline-4-carboxylic acid ((S)-1-cyclohexyl-ethyl)-amide]",212 to 215 °C
2,"C[C@H](NC(=O)c1c(CN2CCNC(=O)C2)c(-c2ccccc2)nc2cc(F)c(F)cc12)C1CCCCC1 [Example 2, 6,7-Difluoro-3-(3-oxo-piperazin-1-ylmethyl)-2-phenyl-quinoline-4-carboxylic acid ((S)-1-cyclohexyl-ethyl)-amide]",185 to 190 °C
3,"C[C@H](NC(=O)c1c(CN2CCN(CCOCCO)C(=O)C2)c(-c2ccccc2)nc2ccc(F)cc12)C1CCCCC1 [Example 3, 6-Fluoro-3-{4-[2-(2-hydroxy-ethoxy)-ethyl]-3-oxo-piperazin-1-ylmethyl}-2-phenyl-quinoline-4-carboxylic acid ((S)-1-cyclohexyl-ethyl)-amide]",110 to 112 °C
4,"C[C@H](NC(=O)c1c(CN2CCN(C[C@H](O)CO)C(=O)C2)c(-c2ccccc2)nc2ccccc12)C1CCCCC1 [Example 4, (S) 3-[4-(2,3-Dihydroxy-propyl)-3-oxo-piperazin-1-ylmethyl]-2-phenyl-quinoline-4-carboxylic acid ((S)-1-cyclohexyl-ethyl)-amide]",125 to 127 °C
5,"C[C@H](NC(=O)c1c(CN2CCN(C[C@@H](O)CO)C(=O)C2)c(-c2ccccc2)nc2ccccc12)C1CCCCC1 [Example 5, (R) 3-[4-(2,3-Dihydroxy-propyl)-3-oxo-piperazin-1-ylmethyl]-2-phenyl-quinoline-4-carboxylic acid ((S)-1-cyclohexyl-ethyl)-amide]",133 to 135 °C
6,"C[C@H](NC(=O)c1c(CN2CCN(CCCO)C(=O)C2)c(-c2ccccc2)nc2ccc(F)cc12)C1CCCCC1 [Example 6, 6-Fluoro-3-[4-(3-hydroxy-propyl)-3-oxo-piperazin-1-ylmethyl]-2-phenyl-quinoline-4-carboxylic acid ((S)-1-cyclohexyl-ethyl)-amide]",110 to 130 °C
7,"C[C@H](NC(=O)c1c(CN2CCN(CCO)C(=O)C2)c(-c2ccccc2)nc2ccc(F)cc12)C1CCCCC1 [Example 7, 6-Fluoro-3-[4-(2-hydroxy-ethyl)-3-oxo-piperazin-1-ylmethyl]-2-phenyl-quinoline-4-carboxylic acid ((S)-1-cyclohexyl-ethyl)-amide]",120 to 122 °C
8,"C[C@H](NC(=O)c1c(CN2CCN(CCOCCO)CC2)c(-c2ccccc2)nc2ccc(F)cc12)C1CCCCC1 [Example 8, 6-Fluoro-3-{4-[2-(2-hydroxy-ethoxy)-ethyl]-piperazin-1-ylmethyl}-2-phenyl-quinoline-4-carboxylic acid ((S)-1-cyclohexyl-ethyl)-amide]",142 to 144 °C
9,"C[C@H](NC(=O)c1c(CN2CCN(CCCO)CC2)c(-c2ccccc2)nc2ccc(F)cc12)C1CCCCC1 [Example 9, 6-Fluoro-3-[4-(3-hydroxy-propyl)-piperazin-1-ylmethyl]-2-phenyl-quinoline-4-carboxylic acid ((S)-1-cyclohexyl-ethyl)-amide]",182 to 184 °C
10,"C[C@H](NC(=O)c1c(CN2CCN(CCO)CC2)c(-c2ccccc2)nc2ccc(F)cc12)C1CCCCC1 [Example 10, 6-Fluoro-3-[4-(2-hydroxy-ethyl)-piperazin-1-ylmethyl]-2-phenyl-quinoline-4-carboxylic acid ((S)-1-cyclohexyl-ethyl)-amide]",114 to 116 °C
11,"C[C@H](NC(=O)c1c(CN2CCN(CCOCCO)CC2)c(-c2cccs2)nc2ccccc12)C1CCCCC1 [Example 11, 3-{4-[2-(2-Hydroxy-ethoxy)-ethyl]-piperazin-1-ylmethyl}-2-thiophen-2-yl-quinoline-4-carboxylic acid ((S)-1-cyclohexyl-ethyl)-amide]",182 to 188 °C

# Now from value to compound:
row,melting point,Structure (SMILES)
1,110 °C,"C[C@H](NC(=O)c1c(CN2CCN(CCO)CC2)c(-c2cccs2)nc2ccccc12)C1CCCCC1 [Example 12, 3-[4-(2-Hydroxy-ethyl)-piperazin-1-ylmethyl]-2-thiophen-2-yl-quinoline-4-carboxylic acid ((S)-1-cyclohexyl-ethyl)-amide]"
2,168 to 170 °C,"C[C@H](NC(=O)c1c(CN2CCN(CCCO)CC2)c(-c2ccccc2)nc2ccccc12)C1CCCCC1 [Example 13, 3-[4-(3-Hydroxy-propyl)-piperazin-1-ylmethyl]-2-phenyl-quinoline-4-carboxylic acid ((S)-1-cyclohexyl-ethyl)-amide]"
3,120 to 122 °C,"C[C@H](NC(=O)c1c(CN2CCN(CCCO)C(=O)C2)c(-c2ccccc2)nc2ccccc12)C1CCCCC1 [Example 14, 3-[4-(3-Hydroxy-propyl)-3-oxo-piperazin-1-ylmethyl]-2-phenyl-quinoline-4-carboxylic acid ((S)-1-cyclohexyl-ethyl)-amide]"
4,240 to 242 °C,"C[C@H](NC(=O)c1c(CN2CCNCC2=O)c(-c2ccccc2)nc2ccc(F)cc12)C1CCCCC1 [Example 15, 6-Fluoro-3-(2-oxo-piperazin-1-ylmethyl)-2-phenyl-quinoline-4-carboxylic acid ((S)-1-cyclohexyl-ethyl)-amide]"
5,125 to 128 °C,"C[C@H](NC(=O)c1c(CN2CCN(CCOCCO)C(=O)C2)c(-c2ccccc2)nc2ccccc12)C1CCCCC1 [Example 16, 3-{4-[2-(2-Hydroxy-ethoxy)-ethyl]-3-oxo-piperazin-1-ylmethyl}-2-phenyl-quinoline-4-carboxylic acid ((S)-1-cyclohexyl-ethyl)-amide]"
6,102 to 104 °C,"C[C@H](NC(=O)c1c(CN2CCN(CCOCCO)C(=O)C2)c(-c2cccs2)nc2ccccc12)C1CCCCC1 [Example 17, 3-{4-[2-(2-Hydroxy-ethoxy)-ethyl]-3-oxo-piperazin-1-ylmethyl}-2-thiophen-2-yl-quinoline-4-carboxylic acid ((S)-1-cyclohexyl-ethyl)-amide]"
7,117 to 119 °C,"C[C@H](NC(=O)c1c(CN2CCN(CCCO)C(=O)C2)c(-c2cccs2)nc2ccccc12)C1CCCCC1 [Example 18, 3-[4-(3-Hydroxy-propyl)-3-oxo-piperazin-1-ylmethyl]-2-thiophen-2-yl-quinoline-4-carboxylic acid ((S)-1-cyclohexyl-ethyl)-amide]"
8,124 to 126 °C,"C[C@H](NC(=O)c1c(CN2CCN(C[C@H](O)CO)CC2)c(-c2ccccc2)nc2ccccc12)C1CCCCC1 [Example 19, 3-[4-((S)-2,3-Dihydroxy-propyl)-piperazin-1-ylmethyl]-2-phenyl-quinoline-4-carboxylic acid ((S)-1-cyclohexyl-ethyl)-amide]"
9,126 to 128 °C,"C[C@H](NC(=O)c1c(CN2CCN(C[C@@H](O)CO)CC2)c(-c2ccccc2)nc2ccccc12)C1CCCCC1 [Example 20, 3-[4-((R)-2,3-Dihydroxy-propyl)-piperazin-1-ylmethyl]-2-phenyl-quinoline-4-carboxylic acid ((S)-1-cyclohexyl-ethyl)-amide]"
10,190 to 192 °C,"CC(NC(=O)c1c(CN2CCN(C[C@H](O)CO)C(=O)C2)c(-c2ccccc2)nc2ccc(F)cc12)C1CCCCC1 (stereo partly drawn) [Example 21, 3-[4-((S)-2,3-Dihydroxy-propyl)-3-oxo-piperazin-1-ylmethyl]-6-fluoro-2-phenyl-quinoline-4-carboxylic acid (1-cyclohexyl-ethyl)-amide]"
11,143 to 145 °C,"C[C@H](NC(=O)c1c(CN2CCN(C[C@@H](O)CO)C(=O)C2)c(-c2ccccc2)nc2ccc(F)cc12)C1CCCCC1 [Example 22, 3-[4-((R)-2,3-Dihydroxy-propyl)-3-oxo-piperazin-1-ylmethyl]-6-fluoro-2-phenyl-quinoline-4-carboxylic acid ((S)-1-cyclohexyl-ethyl)-amide]"
12,115 to 117 °C,"C[C@H](NC(=O)c1c(CN2CCN(C[C@H](O)CO)C(=O)C2)c(-c2cccs2)nc2ccccc12)C1CCCCC1 [Example 23, 3-[4-((S)-2,3-Dihydroxy-propyl)-3-oxo-piperazin-1-ylmethyl]-2-thiophen-2-yl-quinoline-4-carboxylic acid ((S)-1-cyclohexyl-ethyl)-amide]"
13,155 to 157 °C,"C[C@H](NC(=O)c1c(CN2CCN(C(=O)NCCO)CC2)c(-c2ccccc2)nc2ccccc12)C1CCCCC1 [Example 25, 3-[4-(2-Hydroxy-ethylcarbamoyl)-piperazin-1-ylmethyl]-2-phenyl-quinoline-4-carboxylic acid ((S)-1-cyclohexyl-ethyl)-amide]"

# Source: patent publication US20040180902A1, “3-Substituted quinoline-4-carboxamide derivatives as nk-3 and nk-2 receptor antagonists” (priority 2001, published 2004)
